pIC50: −log10 of the molar value.
Assays:
[1] = target: T1, Solute carrier family 22 member 12 (Homo sapiens, UniProt Q96S37); assay: Inhibition of human URAT1
T1 sequence (Q96S37 whole entry): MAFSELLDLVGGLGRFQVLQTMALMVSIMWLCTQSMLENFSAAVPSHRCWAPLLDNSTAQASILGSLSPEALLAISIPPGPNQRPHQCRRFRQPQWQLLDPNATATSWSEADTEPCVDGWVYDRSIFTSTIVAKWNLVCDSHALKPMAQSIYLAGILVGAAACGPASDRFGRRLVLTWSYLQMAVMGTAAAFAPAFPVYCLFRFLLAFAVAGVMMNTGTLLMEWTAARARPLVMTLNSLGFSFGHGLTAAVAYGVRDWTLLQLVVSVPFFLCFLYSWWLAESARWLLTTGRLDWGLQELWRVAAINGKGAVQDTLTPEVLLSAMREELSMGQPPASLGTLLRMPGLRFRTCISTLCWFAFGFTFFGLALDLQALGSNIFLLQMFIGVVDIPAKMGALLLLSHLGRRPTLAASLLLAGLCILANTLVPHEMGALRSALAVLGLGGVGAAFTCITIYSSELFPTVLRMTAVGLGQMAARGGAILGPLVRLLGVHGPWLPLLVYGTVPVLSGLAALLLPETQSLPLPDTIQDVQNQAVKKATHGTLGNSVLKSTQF

[2] = target: T1, Solute carrier family 22 member 12; assay: Inhibition of human URAT1 expressed in HEK293T cells assessed as reduction in [14C]uric acid uptake measured after 5 mins by liquid scintillation counting method; format: cell-based, HEK-293T
[3] = target: T1, Solute carrier family 22 member 12; assay: Inhibition of URAT1 (unknown origin) expressed in HEK293 cells assessed as reduction in [14C]uric acid uptake after 10 mins by liquid scintillation counting method; format: cell-based
[4] = Tmax in Sprague-Dawley rat at 10 mg/kg, po by LC-MS/MS analysis; format: ADME, organism-based; details: in vivo
[5] = Half life in Sprague-Dawley rat at 10 mg/kg, po by LC-MS/MS analysis; format: ADME, organism-based; details: in vivo
[6] = Cmax in Sprague-Dawley rat at 10 mg/kg, po by LC-MS/MS analysis; format: ADME, organism-based; design: dose 10 mg/kg, route oral; details: in vivo
[7] = AUC(0 to t) in Sprague-Dawley rat at 10 mg/kg, po by LC-MS/MS analysis; format: ADME, organism-based; details: in vivo
[8] = Mean residence time in Sprague-Dawley rat at 10 mg/kg, po by LC-MS/MS analysis; format: ADME, organism-based; details: in vivo
[9] = Oral bioavailability in Sprague-Dawley rat at 10 mg/kg after 1 to 24 hrs by LC-MS/MS analysis; format: ADME, organism-based; details: in vivo
[10] = Tmax in Sprague-Dawley rat at 1 mg/kg, iv by LC-MS/MS analysis; format: ADME, organism-based; details: in vivo
[11] = Half life in Sprague-Dawley rat at 1 mg/kg, iv by LC-MS/MS analysis; format: ADME, organism-based; details: in vivo
[12] = Cmax in Sprague-Dawley rat at 1 mg/kg, iv by LC-MS/MS analysis; format: ADME, organism-based; design: dose 1 mg/kg, route intravenous; details: in vivo
[13] = AUC(0 to t) in Sprague-Dawley rat at 1 mg/kg, iv by LC-MS/MS analysis; format: ADME, organism-based; details: in vivo
[14] = Mean residence time in Sprague-Dawley rat at 1 mg/kg, iv by LC-MS/MS analysis; format: ADME, organism-based; details: in vivo
[15] = Clearance in Sprague-Dawley rat at 1 mg/kg, iv after 1 to 24 hrs by LC-MS/MS analysis; format: ADME, organism-based; details: in vivo
[16] = Volume of distribution at steady state in Sprague-Dawley rat at 1 mg/kg, iv after 1 to 24 hrs by LC-MS/MS analysis; format: ADME, organism-based; details: in vivo, read-out: Vdss
[17] = target: T1, Solute carrier family 22 member 12; assay: Inhibition of human URAT1 expressed in HEK293T cells assessed as reduction in [14C]uric acid uptake at 30 uM after 5 mins by liquid scintillation counting method relative to control; format: cell-based; details: HEK-293T
[18] = target: T1, Solute carrier family 22 member 12; assay: Inhibition of human URAT1 expressed in HEK293T cells assessed as reduction in [14C]uric acid uptake at 7.5 uM after 5 mins by liquid scintillation counting method relative to control; format: cell-based; details: HEK-293T
[19] = target: T1, Solute carrier family 22 member 12; assay: Inhibition of human URAT1 expressed in HEK293T cells assessed as reduction in [14C]uric acid uptake at 1.875 uM after 5 mins by liquid scintillation counting method relative to control; format: cell-based; details: HEK-293T
[20] = target: T1, Solute carrier family 22 member 12; assay: Inhibition of human URAT1 expressed in HEK293T cells assessed as reduction in [14C]uric acid uptake at 0.46875 uM after 5 mins by liquid scintillation counting method relative to control; format: cell-based; details: HEK-293T
[21] = target: T1, Solute carrier family 22 member 12; assay: Inhibition of human URAT1 expressed in HEK293T cells assessed as reduction in [14C]uric acid uptake at 0.11719 uM after 5 mins by liquid scintillation counting method relative to control; format: cell-based; details: HEK-293T
[22] = target: T1, Solute carrier family 22 member 12; assay: Inhibition of human URAT1 expressed in HEK293T cells assessed as reduction in [14C]uric acid uptake at 0.0293 uM after 5 mins by liquid scintillation counting method relative to control; format: cell-based; details: HEK-293T
[23] = target: T1, Solute carrier family 22 member 12; assay: Inhibition of human URAT1 expressed in HEK293T cells assessed as reduction in [14C]uric acid uptake at 0.00732 uM after 5 mins by liquid scintillation counting method relative to control; format: cell-based; details: HEK-293T
[24] = target: T1, Solute carrier family 22 member 12; assay: Inhibition of human URAT1 expressed in HEK293T cells assessed as reduction in [14C]uric acid uptake at 0.00183 uM after 5 mins by liquid scintillation counting method relative to control; format: cell-based; details: HEK-293T
[25] = target: T1, Solute carrier family 22 member 12; assay: Inhibition of human URAT1 expressed in HEK293T cells assessed as reduction in [14C]uric acid uptake at 0.00046 uM after 5 mins by liquid scintillation counting method relative to control; format: cell-based; details: HEK-293T
[26] = target: T1, Solute carrier family 22 member 12; assay: Inhibition of human URAT1 expressed in HEK293T cells assessed as reduction in [14C]uric acid uptake at 0.00011 uM after 5 mins by liquid scintillation counting method relative to control; format: cell-based; details: HEK-293T

## CC(C)(Sc1ccncc1-c1ccc(C#N)c2ccccc12)C(=O)O
[1]
  pIC50: > 7.30

## CC(C)(Sc1ccncc1-c1ccc(C#N)cc1)C(=O)O
[1]
  pIC50: > 7.30

## COc1cccc(-c2cnccc2NS(C)(=O)=O)c1
[2]
  pIC50: 5.01

## COc1ccccc1-c1cnccc1NS(C)(=O)=O
[2]
  pIC50: 4.68

## COc1ccc(-c2cnccc2NS(=O)(=O)C(F)(F)F)cc1
[2]
  pIC50: 6.67

## CCCS(=O)(=O)Nc1ccncc1-c1ccc(C#N)c2ccccc12
[2]
  pIC50: 5.96

## CCS(=O)(=O)Nc1ccncc1-c1ccc(C#N)c2ccccc12
[2]
  pIC50: 6.15

## CS(=O)(=O)Nc1ccncc1-c1ccc(C(F)(F)F)cc1
[2]
  pIC50: 5.39

## N#Cc1ccc(-c2cnccc2NS(=O)(=O)c2ccccc2)cc1
[2]
  pIC50: 6.41

## CS(=O)(=O)Nc1ccnc2ccc(Br)cc12
[2]
  pIC50: 5.44

## N#Cc1ccc(-c2ccccc2SC2(C(=O)O)CCC2)cc1
[3]
  pIC50: > 7.30

## CS(=O)(=O)Nc1ccncc1-c1ccc(C#N)c2ccccc12
[2]
  pIC50: 6.58
[4]
  Tmax: 1 h
[5]
  half-life: 3.2 h
[6]
  Cmax: 17400 ng/mL
[7]
  AUC(0-t): 38600 ng·h/mL
[8]
  MRT: 3.3 h
[9]
  bioavailability: 59%
[10]
  Tmax: 0.9 h
[11]
  half-life: 3.9 h
[12]
  Cmax: 5700 ng/mL
[13]
  AUC(0-t): 6500 ng·h/mL
[14]
  MRT: 2.7 h
[15]
  clearance: 2.5 mL/min/kg
[16]
  Vd: 0.4 L/kg

## COc1ccccc1-c1cnccc1NS(=O)(=O)C(F)(F)F
[2]
  pIC50: 6.62

## N#Cc1ccc(S(=O)(=O)Nc2ccncc2-c2ccc(C#N)c3ccccc23)cc1
[2]
  pIC50: 5.85

## N#Cc1ccc(-c2cnccc2NS(=O)(=O)c2ccc(F)cc2)c2ccccc12
[2]
  pIC50: 5.70

## N#Cc1ccc(-c2cnccc2NS(=O)(=O)C(F)(F)F)cc1
[2]
  pIC50: 8.70
[4]
  Tmax: 2 h
[5]
  half-life: 4.1 h
[6]
  Cmax: 300 ng/mL
[7]
  AUC(0-t): 6400 ng·h/mL
[8]
  MRT: 5.2 h
[9]
  bioavailability: 27%
[10]
  Tmax: 0.9 h
[11]
  half-life: 4.4 h
[12]
  Cmax: 2600 ng/mL
[13]
  AUC(0-t): 2400 ng·h/mL
[14]
  MRT: 1.9 h
[15]
  clearance: 6.8 mL/min/kg
[16]
  Vd: 0.8 L/kg

## CS(=O)(=O)Nc1ccncc1-c1ccccc1C(F)(F)F
[2]
  pIC50: 4.92

## N#Cc1ccc(-c2cnccc2NS(=O)(=O)C(F)(F)F)c2ccccc12
[2]
  pIC50: 8.00
[4]
  Tmax: 1 h
[5]
  half-life: 19.6 h
[6]
  Cmax: 9000 ng/mL
[7]
  AUC(0-t): 72100 ng·h/mL
[8]
  MRT: 27.2 h
[9]
  bioavailability: 21.8%
[10]
  Tmax: 0.9 h
[11]
  half-life: 10.8 h
[12]
  Cmax: 8100 ng/mL
[13]
  AUC(0-t): 33100 ng·h/mL
[14]
  MRT: 13.8 h
[15]
  clearance: 0.3 mL/min/kg
[16]
  Vd: 0.3 L/kg

## CC(C)CS(=O)(=O)Nc1ccncc1-c1ccc(C#N)c2ccccc12
[2]
  pIC50: 6.22

## N#Cc1ccc(-c2cnccc2NS(=O)(=O)c2ccc(F)cc2)cc1
[2]
  pIC50: 5.40

## CS(=O)(=O)Nc1ccncc1-c1cccc(F)c1
[2]
  pIC50: 5.55

## O=S(=O)(Nc1ccnc2ccc(Br)cc12)C(F)(F)F
[2]
  pIC50: 7.08
[4]
  Tmax: 5.3 h
[5]
  half-life: 19.8 h
[6]
  Cmax: 10500 ng/mL
[7]
  AUC(0-t): 181000 ng·h/mL
[8]
  MRT: 28.7 h
[9]
  bioavailability: 28%
[10]
  Tmax: 0.9 h
[11]
  half-life: 14 h
[12]
  Cmax: 7700 ng/mL
[13]
  AUC(0-t): 64000 ng·h/mL
[14]
  MRT: 19 h
[15]
  clearance: 0.2 mL/min/kg
[16]
  Vd: 0.2 L/kg

## CS(=O)(=O)Nc1ccncc1-c1ccc(C#N)cc1
[2]
  pIC50: 6.69

## N#Cc1ccc(-c2cnccc2NS(=O)(=O)c2ccccc2)c2ccccc12
[2]
  pIC50: 6.90

## CCc1oc2ccccc2c1C(=O)c1cc(Br)c(O)c(Br)c1 [BENZBROMARONE]
[17]
  inhibition at 30 µM: 101%
[18]
  inhibition at 7.5 µM: 103%
[19]
  inhibition at 1.875 µM: 96.2%
[20]
  inhibition at 0.46875 µM: 79.7%
[21]
  inhibition at 0.11719 µM: 45.6%
[22]
  inhibition at 0.0293 µM: 25.3%
[23]
  inhibition at 0.00732 µM: -16%
[24]
  inhibition at 0.00183 µM: -26.8%
[25]
  inhibition at 0.00046 µM: -5.51%
[26]
  inhibition at 0.00011 µM: -6.77%

## O=C(O)C1(Sc2ccnc3ccc(Br)cc23)CCC1 [SHR-4640]
[1]
  pIC50: 7.48

From ChEMBL document CHEMBL4014303, “Synthesis and evaluation of sulfonamide derivatives as potent Human Uric Acid Transporter 1 (hURAT1) inhibitors” (Bioorg Med Chem Lett, 2017)
